Data as given in patent US8354422B2, “Pyrimidine inhibitors of kinase activity” (Abbott Laboratories Inc., priority 2009, dated 2013).

molecular target: T1, C-terminal GST-tagged, recombinant, human IGF-1R, amino acids 954-1367 (Homo sapiens, UniProt P08069); test: IGF-1R kinase activity, homogenous time-resolved fluorescence (HTRF) in vitro kinase assay; format: biochemical; settings: IGF-1R kinase HTRF assay, ATP 50 μM, biotinylated peptide substrate 0.5 μM, 60 minutes at room temperature
T1 construct: human IGF-1R, amino acids 954-1367 expressed by baculovirus in Sf21 cells; GST (C); purchased Cell Signaling Technology; host or cells: baculovirus in Sf21 cells
T1 sequence (P08069 954-1367): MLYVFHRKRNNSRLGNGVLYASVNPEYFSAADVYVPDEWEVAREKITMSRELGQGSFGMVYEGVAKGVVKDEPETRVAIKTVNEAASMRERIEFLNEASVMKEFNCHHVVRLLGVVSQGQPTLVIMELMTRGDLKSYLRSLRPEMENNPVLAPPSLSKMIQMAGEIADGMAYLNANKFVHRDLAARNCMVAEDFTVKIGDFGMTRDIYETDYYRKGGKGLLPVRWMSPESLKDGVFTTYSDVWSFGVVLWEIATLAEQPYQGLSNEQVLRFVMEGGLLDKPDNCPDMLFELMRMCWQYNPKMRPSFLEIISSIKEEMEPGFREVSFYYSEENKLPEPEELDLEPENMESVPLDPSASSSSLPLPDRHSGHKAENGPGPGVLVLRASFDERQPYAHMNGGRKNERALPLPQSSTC
Method: IGF-1R kinase activity was assayed by a homogenous time-resolved fluorescence (HTRF) in vitro kinase assay (Mathis, G., HTRF(R) Technology. J Biomol Screen, 1999. 4(6): p. 309-314). Specifically, 10 μL C-terminal GST-tagged, recombinant, human IGF-1R, amino acids 954-1367 expressed by baculovirus in Sf21 cells (Cell Singaling Technology) was mixed with 10 μL inhibitor (various concentrations, 2% final DMSO) and 10 μL of ATP (50 μM final concentration) in reaction buffer (50 mM HEPES, pH […], 2 mM MnCl2, 0.1% BSA and 1 mM DTT, 40 μL final volume). The reaction was initiated by addition of 10 μL of biotinylated peptide substrate (Biotin-Ahx-[…], 0.5 μM final concentration) in a black 384-well plate (Packard). After 60 minutes incubation at room temperature, the reaction was quenched by addition of 60 μL stop/revelation buffer to give 30 mM EDTA, 1 μg/mL streptavidin-APC (Prozyme), 50 ng/mL anti-phosphotyrosine mAb PT66-K Europium Cryptate, 30 mM HEPES, pH 7.5, 120 mM KF, 0.005% Tween-20, 0.05% BSA). The quenched reaction was allowed to stand at room temperature for 1 hour and then read in a time-resolved fluorescence detector (Envision, Perkin Elmer) at 615 nm and 665 nm simultaneously. The ratio between the signal of 615 nm and 665 nm was used in the calculation of the IC50.

First: CN(C)CCc1cccc(Nc2nccc(-c3c(-c4ccc(OCc5ccccc5)c(F)c4)nc4ccccn34)n2)c1 [Example 9, 4-{2-[4-(benzyloxy)-3-fluorophenyl]imidazo[1,2-a]pyridin-3-yl}-N-{3-[2-(dimethylamino)ethyl]phenyl}pyrimidin-2-amine]
Second: Cc1cc(-c2nc3ccccn3c2-c2ccnc(Nc3cccc(CCN(C)C)c3)n2)ccc1OCc1ccccc1 [Example 68, 4-{2-[4-(benzyloxy)-3-methylphenyl]imidazo[1,2-a]pyridin-3-yl}-N-{3-[2-(dimethylamino)ethyl]phenyl}pyrimidin-2-amine]
The IC50 of the first is lower: 25 to 100 nM for the first, 501 to 1000 nM for the second.

`COc1cc(Cl)ccc1Nc1nccc(-c2c(-c3ccc(OCc4ccccc4)cc3)nc3ccccn23)n1` [Example 22, 4-{2-[4-(benzyloxy)phenyl]imidazo[1,2-a]pyridin-3-yl}-N-(4-chloro-2-methoxyphenyl)pyrimidin-2-amine] and `COc1ccccc1Nc1nccc(-c2c(-c3ccc(OCc4ccccc4)cc3)nc3ccccn23)n1` [Example 3, 4-{2-[4-(benzyloxy)phenyl]imidazo[1,2-a]pyridin-3-yl}-N-(2-methoxyphenyl)pyrimidin-2-amine] cannot be ordered by IC50: greater than 1000 nM for the first, greater than 1000 nM for the second.

`COc1cc(N2CCC(N(C)C)CC2)ccc1Nc1nccc(-c2c(-c3ccc(OCc4ccccc4)cc3)nc3sccn23)n1` [Example 80, 4-{6-[4-(benzyloxy)phenyl]imidazo[2,1-b][1,3]thiazol-5-yl}-N-{4-[4-(dimethylamino)piperidin-1-yl]-2-methoxyphenyl}pyrimidin-2-amine] and `COc1cc(-c2nc3sccn3c2-c2ccnc(Nc3ccc(CN(C)C)cc3)n2)ccc1OCc1ccccc1` [Example 83] fall in the same range of IC50: 25 to 100 nM for the first, 25 to 100 nM for the second.

`COc1cc(-c2nc3ccccn3c2-c2ccnc(Nc3ccc4c(c3)CN(C)CC4)n2)ccc1OCc1ccccc1` [Example 60, N-(4-{2-[4-(benzyloxy)-3-methoxyphenyl]imidazo[1,2-a]pyridin-3-yl}pyrimidin-2-yl)-2-methyl-1,2,3,4-tetrahydroisoquinolin-7-amine] and `COc1cc(-c2nc3ccccn3c2-c2ccnc(Nc3ccc4c(c3)CNCC4)n2)ccc1OCc1ccccc1` [Example 62, N-(4-{2-[4-(benzyloxy)-3-methoxyphenyl]imidazo[1,2-a]pyridin-3-yl}pyrimidin-2-yl)-1,2,3,4-tetrahydroisoquinolin-7-amine] fall in the same range of IC50: 25 to 100 nM for the first, 25 to 100 nM for the second.

Compared with `COc1cc(N(C)C)ccc1Nc1nccc(-c2c(-c3ccc(OCc4ccccc4)c(OC)c3)nc3ccccn23)n1` [Example 42, N^1-(4-{2-[4-(benzyloxy)-3-methoxyphenyl]imidazo[1,2-a]pyridin-3-yl}pyrimidin-2-yl)-2-methoxy-N^4,N^4-dimethylbenzene-1,4-diamine], `COc1cc(N)ccc1Nc1nccc(-c2c(-c3ccc(OCc4ccccc4)c(OC)c3)nc3ccccn23)n1` [Example 46, N^1-(4-{2-[4-(benzyloxy)-3-methoxyphenyl]imidazo[1,2-a]pyridin-3-yl}pyrimidin-2-yl)-2-methoxybenzene-1,4-diamine] is lower in IC50: 101 to 500 nM for the first, 25 to 100 nM for the second. The second is the more potent here.

`COc1ccc(CN(C)CCO)cc1Nc1nccc(-c2c(-c3ccc(OCc4ccccc4)c(OC)c3)nc3ccccn23)n1` [Example 64, 2-[{3-[(4-{2-[4-(benzyloxy)-3-methoxyphenyl]imidazo[1,2-a]pyridin-3-yl}pyrimidin-2-yl)amino]-4-methoxybenzyl}(methyl)amino]ethanol] and `CCN(CCO)c1cccc(Nc2nccc(-c3c(-c4ccc(OCc5ccccc5)c(OC)c4)nc4ccccn34)n2)c1` [Example 31, 2-[{3-[(4-{2-[4-(benzyloxy)-3-methoxyphenyl]imidazo[1,2-a]pyridin-3-yl}pyrimidin-2-yl)amino]phenyl}(ethyl)amino]ethanol] fall in the same range of IC50: 101 to 500 nM for the first, 101 to 500 nM for the second.

`COc1cc(-c2nc3ccccn3c2-c2ccnc(Nc3cnn(CCN4CCCC4)c3)n2)ccc1OCc1ccccc1` [Example 37, 4-{2-[4-(benzyloxy)-3-methoxyphenyl]imidazo[1,2-a]pyridin-3-yl}-N-[1-(2-pyrrolidin-1-ylethyl)-1H-pyrazol-4-yl]pyrimidin-2-amine] and `COc1cc(-c2nc3ccccn3c2-c2ccnc(Nc3cnn(CCN4CCCCC4)c3)n2)ccc1OCc1ccccc1` [Example 54, 4-{2-[4-(benzyloxy)-3-methoxyphenyl]imidazo[1,2-a]pyridin-3-yl}-N-[1-(2-piperidin-1-ylethyl)-1H-pyrazol-4-yl]pyrimidin-2-amine] fall in the same range of IC50: 101 to 500 nM for the first, 101 to 500 nM for the second.

First: COc1cc(-c2nc3ccccn3c2-c2ccnc(Nc3ccc(N4CCS(=O)(=O)CC4)cc3)n2)ccc1OCc1ccccc1 [Example 32, 4-{2-[4-(benzyloxy)-3-methoxyphenyl]imidazo[1,2-a]pyridin-3-yl}-N-[4-(1,1-dioxidothiomorpholin-4-yl)phenyl]pyrimidin-2-amine]
Second: COc1cc(N2CCS(=O)(=O)CC2)ccc1Nc1nccc(-c2c(-c3ccc(OCc4ccccc4)c(OC)c3)nc3ccccn23)n1 [Example 63, 4-{2-[4-(benzyloxy)-3-methoxyphenyl]imidazo[1,2-a]pyridin-3-yl}-N-[4-(1,1-dioxidothiomorpholin-4-yl)-2-methoxyphenyl]pyrimidin-2-amine]
The IC50 of the first is higher: 101 to 500 nM for the first, 25 to 100 nM for the second. The second is the more potent here.

`COc1ccc(COc2ccc(-c3nc4ccccn4c3-c3ccnc(Nc4cccc(CCN(C)C)c4)n3)cc2)cc1` [Example 17, N-{3-[2-(dimethylamino)ethyl]phenyl}-4-(2-{4-[(4-methoxybenzyl)oxy]phenyl}imidazo[1,2-a]pyridin-3-yl)pyrimidin-2-amine] and `COc1ccccc1COc1ccc(-c2nc3ccccn3c2-c2ccnc(Nc3cccc(CCN(C)C)c3)n2)cc1` [Example 16, N-{3-[2-(dimethylamino)ethyl]phenyl}-4-(2-{4-[(2-methoxybenzyl)oxy]phenyl}imidazo[1,2-a]pyridin-3-yl)pyrimidin-2-amine] fall in the same range of IC50: 101 to 500 nM for the first, 101 to 500 nM for the second.

First: COc1cc(-c2nc3ccccn3c2-c2ccnc(Nc3cccc(OCCN4CCCC4)c3)n2)ccc1OCc1ccccc1 [Example 30, 4-{2-[4-(benzyloxy)-3-methoxyphenyl]imidazo[1,2-a]pyridin-3-yl}-N-[3-(2-pyrrolidin-1-ylethoxy)phenyl]pyrimidin-2-amine]
Second: COc1cc(-c2nc3ccccn3c2-c2ccnc(Nc3cccc(CCN4CCCC4)c3)n2)ccc1OCc1ccccc1 [Example 24, 4-{2-[4-(benzyloxy)-3-methoxyphenyl]imidazo[1,2-a]pyridin-3-yl}-N-[3-(2-pyrrolidin-1-ylethyl)phenyl]pyrimidin-2-amine]
The IC50 of the first is lower: less than 25 nM for the first, 25 to 100 nM for the second. The first is the more potent here.

First: COc1cc(-c2nc3ccccn3c2-c2ccnc(Nc3ccc(CCN(C)C)cc3)n2)ccc1OCc1ccccc1 [Example 69, 4-{2-[4-(benzyloxy)-3-methoxyphenyl]imidazo[1,2-a]pyridin-3-yl}-N-{4-[2-(dimethylamino)ethyl]phenyl}pyrimidin-2-amine]
Second: COc1cc(-c2nc3ccccn3c2-c2ccnc(Nc3cccc(CCN(C)C)c3)n2)ccc1OCc1ccccc1 [Example 12, 4-{2-[4-(benzyloxy)-3-methoxyphenyl]imidazo[1,2-a]pyridin-3-yl}-N-{3-[2-(dimethylamino)ethyl]phenyl}pyrimidin-2-amine]
The IC50 of the first is lower: less than 25 nM for the first, 101 to 500 nM for the second.

`COc1ccc(C(F)(F)F)cc1Nc1nccc(-c2c(-c3ccc(OCc4ccccc4)cc3)nc3ccccn23)n1` [Example 41, 4-{2-[4-(benzyloxy)phenyl]imidazo[1,2-a]pyridin-3-yl}-N-[2-methoxy-5-(trifluoromethyl)phenyl]pyrimidin-2-amine] and `c1ccc(COc2ccc(-c3nc4ccccn4c3-c3ccnc(Nc4cc(C5CC5)n[nH]4)n3)cc2)cc1` [Example 15, 4-{2-[4-(benzyloxy)phenyl]imidazo[1,2-a]pyridin-3-yl}-N-(3-cyclopropyl-1H-pyrazol-5-yl)pyrimidin-2-amine] cannot be ordered by IC50: greater than 1000 nM for the first, greater than 1000 nM for the second.

`COc1cc(-c2nc3ccccn3c2-c2ccnc(Nc3ccc(CCN4CCCC4)cc3)n2)ccc1OCc1ccccc1` [Example 23, 4-{2-[4-(benzyloxy)-3-methoxyphenyl]imidazo[1,2-a]pyridin-3-yl}-N-[4-(2-pyrrolidin-1-ylethyl)phenyl]pyrimidin-2-amine] and `COc1cc(-c2nc3ccccn3c2-c2ccnc(Nc3ccc(N4CCN(CCO)CC4)cc3)n2)ccc1OCc1ccccc1` [Example 44, 2-(4-{4-[(4-{2-[4-(benzyloxy)-3-methoxyphenyl]imidazo[1,2-a]pyridin-3-yl}pyrimidin-2-yl)amino]phenyl}piperazin-1-yl)ethanol] fall in the same range of IC50: 25 to 100 nM for the first, 25 to 100 nM for the second.

First: CCc1cc(-c2nc3ccccn3c2-c2ccnc(Nc3cccc(CCN(C)C)c3)n2)ccc1OCc1ccccc1 [Example 50, 4-{2-[4-(benzyloxy)-3-ethylphenyl]imidazo[1,2-a]pyridin-3-yl}-N-{3-[2-(dimethylamino)ethyl]phenyl}pyrimidin-2-amine]
Second: COc1cc(C2CCNCC2)ccc1Nc1nccc(-c2c(-c3ccc(OCc4ccccc4)c(OC)c3)nc3ccccn23)n1 [Example 57, 4-{2-[4-(benzyloxy)-3-methoxyphenyl]imidazo[1,2-a]pyridin-3-yl}-N-(2-methoxy-4-piperidin-4-ylphenyl)pyrimidin-2-amine]
The IC50 of the first is higher: greater than 1000 nM for the first, less than 25 nM for the second.
